What was measured:
[1] = system: salmon sperm DNA; test: Absorption spectrophotometry of the pyrylium compound free and mixed with salmon sperm DNA; format: binding; details: DNA 50 μg/ml, compound 3×10^−5 M, 10 mM phosphate buffer pH 7.0
Method: Compound 3 prepared in Example 1 (2-(3-carboxypropyl)-4,6-bis(4-N,N-dimethylaminophenyl)pyrylium iodide) was dissolved into a 10 mM phosphate buffer solution (pH 7.0) to prepare Solution IA. A fraction of Solution IA was diluted to a final concentration of 3×10^−5 M, and the diluted solution was subjected to absorption spectrophotometry. The absorption spectrum is denoted by (A) in FIG. 1.
(§1) A DNA solution was prepared using salmon sperm DNA (mfd. by Sigma-Aldrich Co.) which was adequately purified according to a conventional method. A fraction of the DNA solution and a fraction of Solution IA were mixed to prepare Solution IB in which the final DNA concentration was 50 μg/ml and the final concentration of Compound 3 was 3×10^−5 M. A fraction of Solution IB was subjected to absorption spectrophotometry. The absorption spectrum is denoted by (B) in FIG. 1.
(§2) With reference to spectrum (A) of Compound 3 and spectrum (B) of Solution IB in FIG. 1, the absorption bands of Solution IB are shifted to longer wavelengths by 30 nm and absorbance is decreased due to interaction between Compound 3 and the DNA. These changes can be attributed to the intercalative characteristics of Compound 3.
Compound 6 prepared in Example 3 (2-(2-carboxyethyl)-4,6-bis(4-N,N-dimethylaminophenyl)pyrylium iodide) was dissolved into a 10 mM phosphate buffer solution (pH 7.0) to prepare Solution IIA. A fraction of Solution IIA was diluted to a final concentration of 3×10^−5 M, and the diluted solution was subjected to absorption spectrophotometry. The absorption spectrum is denoted by (A) in FIG. 4.
as §1, with “DNA (Sigma-Aldrich” for “DNA (mfd. by Sigma-Aldrich”, “Solution IIA” for “Solution IA”, “Solution IIB” for “Solution IB”, “Compound 6” for “Compound 3”, “FIG. 4.” for “FIG. 1.”
as §2, with “Compound 6” for “Compound 3”, “Solution IIB” for “Solution IB”, “FIG. 4,” for “FIG. 1,”, “to” for “to the”, “Compound 6.” for “Compound 3.”

[2] = system: salmon sperm DNA; test: Spectrofluorimetry of the pyrylium compound with and without salmon sperm DNA; format: binding; details: excitation 550 nm; for fluorescence of solution not containing DNA: no DNA; for fluorescence wavelength of solution containing DNA (fluoresces intensely): with salmon sperm DNA
Method: A fraction of Solution IA and a fraction of Solution IB were diluted so that the concentration of Compound 3 was the same in these diluted solutions. The diluted solutions were subjected to conventional spectrofluorimetry by excitation light having a wavelength of 550 nm.
A fraction of Solution IIA and a fraction of Solution IIB were diluted so that the concentration of Compound 6 was the same in these diluted solutions. The diluted solutions were subjected to conventional spectrofluorimetry by excitation light having a wavelength of 550 nm.

Row | Structure (SMILES) | change of absorbance due to interaction with DNA [1] | shift of absorption bands to longer wavelengths due to interaction with DNA [1] [nm] | fluorescence of solution not containing DNA [2] | fluorescence wavelength of solution containing DNA (fluoresces intensely) [2] [nm]
1 | CN(C)c1ccc(-c2cc(CCCC(=O)O)[o+]c(-c3ccc(N(C)C)cc3)c2)cc1.[I-] [Compound 3, 2-(3-carboxypropyl)-4,6-bis(4-N,N-dimethylaminophenyl)pyrylium iodide] | decreased | 30 | does not fluoresce | ~640
2 | CN(C)c1ccc(-c2cc(CCC(=O)O)[o+]c(-c3ccc(N(C)C)cc3)c2)cc1.[I-] [Compound 6, 2-(2-carboxyethyl)-4,6-bis(4-N,N-dimethylaminophenyl)pyrylium iodide] | decreased | 30 | does not fluoresce | ~640
